What was measured:
PLC-β4^−/− mice [1] = experiment: Hippocampal EEG theta rhythm in a novel environment after rivastigmine; format: in vivo; conditions: 0.5 mg/kg i.p.
Description: For electrode implantation, the animals were anesthetized with pentobarbital ([…], i.p.) and held in a stereotaxic apparatus with bregma and lambda in the same horizontal plane. Hippocampal EEG recordings were performed using Teflon-coated tungsten electrodes (150 um) implanted in the hippocampal fissure with grounding over the cerebellum (from bregma, 2.0 mm anteroposterior, 1.2 mm mediolateral, and 1.8 mm dorsoventral). The position of the electrodes was verified by light microscopy in Nissl-stained sections according to published protocols. Field potential was amplified (×1,000), bandpass-filtered (bandpass-filtered) (0.1-100 Hz), digitized with 12-bit resolution continuously at 1 kHz sampling, and recorded on a personal computer.
The EEG EEG data were collected in 4 s segments and fast-Fourier transformed (FFT). The data were continuously monitored for movement artifacts, and the recording of each segment was manually verified by the experimenter, blinded to the genotype of the animals. […] To compare the EEG spectral characteristics of hippocampal electrical activities, EEG spectral power in 1 Hz bins was calculated using FFT (Hamming window) of each 4 s epoch. […]
Cholinergic and noncholinergic theta rhythms associated with different behaviors were recorded. […] Non-cholinergic type I theta rhythms were recorded from mice walking in an open chamber or running on a wheel. […]

PLC-β4^−/− mice [2] = experiment: Open-field thigmotaxis test after rivastigmine; format: in vivo; conditions: 0.5 mg/kg i.p., 60 min before test
Description: Open field thigmotaxis was assessed by placing mice in the center of an open field apparatus (40×40×40 cm) under dim lighting. During a 10 min observation period, locomotor activity, number of central crosses, and time spent in the central sector of the open field were recorded and analyzed by PC-based video behavior assay system (TSE, Bad Homburg, Germany). Thigmotaxis index was defined as a ratio of the number of entries into the central part of a testing arena to the locomotor activity. The thigmotaxis index was calculated for each mouse separately and used to calculate means and SEMs for a given experimental group (Treit, D. & Fundytus, M., Pharmacol. Biochem. Behav. 31, 959-962, 1988; Sienkiewicz-Jarosz, H. et al., J Neural Transm. 107, 1403-1412, 2000).
(§1) rivastigmine (Novartis Pharma, Basel, Switzerland), which is a cholinergic enhancer, was dissolved in saline. Animals were injected intraperitoneally (i.p.) with 0.5 mg/kg rivastigmine 60 min before the start of anxiety behavioral test (total volume, 5 ml/kg). […] Both PLC-β4^+/+(WT) and PLC-β4^−/−(KO) mice were randomly assigned to one of the following treatment groups: (1) WT-sham (wild-type mice with intraperitoneal injection of saline; n=10), (2) KO-sham (PLC-β4^−/− mice with intraperitoneal injection of saline; n=10), and (3) KO-rivastigmine (PLC-β4^−/− mice with intraperitoneal injection of rivastigmine; n=10). rivastigmine is a second-generation carbamate-based reversible non-competitive AChE and butyrylChE (BuChE) inhibitor. The reason for choosing the inhibitor is that an inhibitory effect sustains for a long period of time, the inhibitor is specific to the brain (Enz, A. et al., Prog. Brain Res. 98, 431-438, 1993), and the inhibitor selectively increases cholin activity in hippocampus and cortex (Weinstock, M., et al., J. Neural Transm. Suppl. 43, 219-225, 1994).
(§2) Whether rivastigmine administration could also rescue the increased anxiety phenotype of PLC-β4^−/− mice was investigated. To this end, rivastigmine (0.5 mg/kg, i.p.) was injected into PLC-β4^−/− mice and, 60 min after injection, the rivastigmine treated group was subjected to three anxiety behavioral assays.

PLC-β4^−/− mice [3] = experiment: Elevated plus-maze after rivastigmine; format: in vivo; conditions: 0.5 mg/kg i.p., 60 min before test
Description: The elevated plus-maze consists of two open and two enclosed arms of the same size (45^┘ 5 cm) with walls 15 cm high. The arms, constructed of black acrylic, radiate from a central platform (5^┘ 5 cm) to form a plus sign. The entire apparatus was elevated to a height of 30 cm above floor level. Each mouse was placed in the central platform facing one of the open arms. The number of entries into the open and closed arms and the time spent on the open and closed arms were recorded during a 5 min test period (Parks, C. L. et al., Proc. Natl. Acad. Sci. USA 95, 10734-10739; 1998; Ramboz, S. et al., Proc. Natl. Acad. Sci. USA 95, 14476-14481, 1998; Gross, C. et al., Nature 416, 396-400, 2002).
(§3) rivastigmine (Novartis Pharma, Basel, Switzerland), which is a cholinergic enhancer, was dissolved in saline. Animals were injected intraperitoneally (i.p.) with 0.5 mg/kg rivastigmine 60 min before the start of anxiety behavioral test (total volume, 5 ml/kg). […]

PLC-β4^−/− mice [4] = experiment: Light/dark transition test after rivastigmine; format: in vivo; conditions: 0.5 mg/kg i.p., 60 min before test
From the text: The apparatus used for the light/dark transition test consisted of a cage (25×40×20 cm) divided into two compartments by a black partition containing a small opening that allows the mouse to move from one compartment to the other. One compartment, comprising two-thirds of the surface area, was made of white plastic and was brightly illuminated; the adjoining smaller compartment was black and dark. Mice were placed in the dark compartment and allowed to move freely between the two chambers for 5 min. The number of transitions between the two compartments, time spent in each chamber, and latency to the first transition were recorded (Welch, J. M. et al., Nature 448, 894-900, 2007).
as §3

PLC-β4^−/− mice [5] = experiment: Three anxiety behavioral assays after rivastigmine (overall); format: in vivo; conditions: 0.5 mg/kg i.p., 60 min after injection
Description: as §1, §2

[6] = test system: hippocampus acetylcholine concentration; conditions: 0.5 mg/kg of rivastigmine; microdialysis; cited from earlier work

CCN(C)C(=O)Oc1cccc([C@H](C)N(C)C)c1 [rivastigmine]
amplitude of the cholinergic theta rhythms (PLC-β4^−/− mice [1]; alert immobility, novel environment): restored to a level similar to that of the wild-type mice injected with saline
amplitude of non-cholinergic type I theta rhythms (PLC-β4^−/− mice [1]; recorded during locomotion (walking) in new open field, vs saline-injected KO and WT mice): not significantly different among the three groups
locomotion in the center of the open field (PLC-β4^−/− mice [2]): wild-type levels of locomotion in the center of the open field
thigmotaxis index (PLC-β4^−/− mice [2]): reduced thigmotaxis index to the same levels as those in wild-type mice injected with saline
time spent in the central sector of the open field (PLC-β4^−/− mice [2]): levels comparable with those in wild-type mice injected with saline
total locomotion activities in the open field (PLC-β4^−/− mice [2]): wild-type levels of total locomotion activities
entries into the open arms (PLC-β4^−/− mice [3]): indistinguishable from wild-type mice injected with saline
total entries into the closed and open arms (PLC-β4^−/− mice [3]; three groups): did not differ among the three groups
time in the light chamber (PLC-β4^−/− mice [4]): indistinguishable from that of wild-type mice injected with saline
transitions between light and dark boxes (PLC-β4^−/− mice [4]): indistinguishable from that of wild-type mice injected with saline
increased anxiety phenotype in each of the three anxiety tests (PLC-β4^−/− mice [5]): showed a reversal of the increased anxiety phenotype
increase of hippocampus acetylcholine concentration [6]: about 100%

From patent US20120143074A1, “METHOD OF EVALUATING SUITABILITY FOR DRUG THERAPY FOR THE PREVENTION AND TREATMENT OF ANXIETY DISORDERS USING CHOLINERGIC TYPE II THETA RHYTHM” (priority 2009, published 2012)
